Literature values in patent publication EP1151755B1, “Pharmaceutical compositions comprising cyclosporin as active ingredient” (Panacea Biotec Limited, priority 2000, dated 2001).

System: normal epithelial tissue and Peyer's patch tissue of guinea pigs
Settings: in vitro; compared to the commercially available drinking solution

Choleic acid
factor by which absorption of Cyclosporine was raised: 5-6
